Read-outs that look alike come from different tables or passages of the source. Blank lines part the entries; values can stand above or below the compound they belong to.
Tests used:
[1] = system: apomorphine-induced emesis; test: Emetic challenge study (apomorphine-induced emesis) in beagle dogs; assay type: in vivo, beagle dog; details: each dose tested (0.3, 1.0, and 3.0 mg/kg)
Description: Each animal is administered a different dose on a particular dosing day, so that each dose of tradipitant, aprepitant, and apomorphine alone is represented. Over the five (5) weeks of the study, each animal receives each of the treatments, but only one per week. The purpose of this study is to determine if tradipitant suppresses apomorphine-induced emesis.
(§1) All animals are dosed over a period of five (5) weeks, with each dog receiving one of five different treatments on each day of dosing. […] In cases where apomorphine is administered alone, without prior treatment with tradipitant or aprepitant, apomorphine is given at approximately the same time as when given in combination with tradipitant or aprepitant.
All dogs are fasted overnight prior to each treatment day and then fed approximately one (1) hour after oral dosing (approximately one (1) hour prior to administration of apomorphine). Individual doses are adjusted weekly for changes in body weight.
The dose regimen consists of a 5×5 Latin square design, in which each subject receives 1 dose or dose combination per week (6 day washout) as shown in Table 3 below.

[2] = system: panel of 74 other receptors, enzymes, and ion channels; test: Binding panel of 74 other receptors, enzymes and ion channels
NK-2 receptor = biological target: T1, NK-2 receptor (Homo sapiens, UniProt P21452); test: NK-2 receptor inhibition; assay type: binding
T1 sequence (P21452 1-398): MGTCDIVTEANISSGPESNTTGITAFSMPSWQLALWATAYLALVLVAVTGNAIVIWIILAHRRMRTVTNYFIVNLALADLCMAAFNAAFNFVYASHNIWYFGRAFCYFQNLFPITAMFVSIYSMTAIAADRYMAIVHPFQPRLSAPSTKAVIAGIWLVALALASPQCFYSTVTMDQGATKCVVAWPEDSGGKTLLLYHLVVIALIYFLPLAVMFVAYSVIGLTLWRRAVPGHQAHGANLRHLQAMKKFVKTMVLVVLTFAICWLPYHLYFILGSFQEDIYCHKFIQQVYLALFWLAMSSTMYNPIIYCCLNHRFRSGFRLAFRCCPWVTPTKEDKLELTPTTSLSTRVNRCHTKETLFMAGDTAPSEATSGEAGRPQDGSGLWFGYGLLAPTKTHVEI

[3] = Plasma concentration of tradipitant 2 hours post-dose in dogs; assay type: in vivo; details: male, beagle, dog, oral, read-out: Concentration of tradipitant in plasma, Mean (SD)
Description: as §1

[4] = system: NK-1 agonist (GR73632)-induced vocalization; test: GR73632-induced vocalization in guinea pigs; assay type: in vivo, guinea pig
Description: Male Dunkin/Hartley guinea pigs (200 to 250 grams) are orally administered either vehicle or an NK-1 antagonist. Approximately 45 minutes later (for dose response studies), the animals are anesthetized and 0.1 nmol of GR73632 (SP analog) in a vehicle volume of 5 μl is injected into the cerebral ventricle at the intersection of bregma and the midline of the skull. Animals are placed in a dark testing chamber located inside of a sound attenuation cubicle and vocalizations are recorded for 30 minutes following recovery from anesthesia. The time spent vocalizing is quantified for each animal. In the duration of action study, 0.1 mg/kg of tradipitant or vehicle solution is administered orally and then 2, 4, or 7 hours later, 0.1 nmol of GR73632 is administered into the cerebral ventricle as described above. Vocalizations are recorded and quantified as indicated above. Vehicle solutions are either CMC (FIG. 4 data) or an ethanol/emulphor solution (FIGS. 5 and 6). Data is analyzed using one-tailed t-tests.

NK-1 receptor [5] = biological target: T2, NK-1 receptor (Homo sapiens, UniProt P25103); test: [125I] substance P binding to the NK-1 receptor, IM-9 human cell membrane binding; set-up: NK-1 receptor expressed by IM-9 cells; endogenous in cells; host or cells: IM-9 human cells (membranes); details: Table 1
T2 sequence (P25103 whole entry): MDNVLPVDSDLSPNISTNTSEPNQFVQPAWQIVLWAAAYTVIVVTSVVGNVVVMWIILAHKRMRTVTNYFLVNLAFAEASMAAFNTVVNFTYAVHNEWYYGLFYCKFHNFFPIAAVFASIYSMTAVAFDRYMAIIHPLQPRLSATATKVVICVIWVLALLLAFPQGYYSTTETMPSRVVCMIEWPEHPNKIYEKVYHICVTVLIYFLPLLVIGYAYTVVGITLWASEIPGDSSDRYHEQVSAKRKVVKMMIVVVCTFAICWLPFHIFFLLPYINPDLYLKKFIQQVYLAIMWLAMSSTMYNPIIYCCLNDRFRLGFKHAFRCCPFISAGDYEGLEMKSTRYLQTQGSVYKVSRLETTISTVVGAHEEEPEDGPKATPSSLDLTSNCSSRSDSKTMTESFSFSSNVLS

NK-3 receptor = biological target: T3, NK-3 receptor (Homo sapiens, UniProt P29371); test: NK-3 receptor inhibition; assay type: binding
T3 sequence (P29371 1-465): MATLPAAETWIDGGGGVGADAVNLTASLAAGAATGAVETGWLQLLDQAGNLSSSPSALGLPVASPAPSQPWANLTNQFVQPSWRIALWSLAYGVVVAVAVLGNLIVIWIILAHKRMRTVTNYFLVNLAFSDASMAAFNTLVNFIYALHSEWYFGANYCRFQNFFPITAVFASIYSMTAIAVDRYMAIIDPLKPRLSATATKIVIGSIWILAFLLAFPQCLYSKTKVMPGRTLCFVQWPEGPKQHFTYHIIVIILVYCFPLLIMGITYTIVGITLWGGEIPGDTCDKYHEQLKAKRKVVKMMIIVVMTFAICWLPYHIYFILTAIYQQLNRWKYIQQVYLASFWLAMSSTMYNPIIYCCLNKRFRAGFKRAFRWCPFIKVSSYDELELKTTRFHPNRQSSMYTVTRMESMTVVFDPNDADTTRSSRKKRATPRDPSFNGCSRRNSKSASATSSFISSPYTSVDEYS

NK-1 receptor [6] = biological target: T2, NK-1 receptor; test: SP-induced mobilization of intracellular calcium in U373 cells; assay type: cell-based; set-up: mobilization of intracellular calcium in U373 cells; endogenous in cells; host or cells: U373 cells
[7] = system: NK-1 agonist (GR73632)-induced foot-tapping behavior; test: NK-1 agonist (GR73632, icv)-induced foot-tapping behavior in gerbils; assay type: in vivo, Mongolian gerbil
Description: Immediately after injection, animals are placed individually into isolated chambers with pressure-sensitive velocimeter platform floors (San Diego Instruments acoustic startle apparatus) that detect and quantify vibration. The San Diego Instruments “SR” DOS-based computer program is used on a PC to record the number of foot-taps over the following 6 to 10 minutes, beginning 30 seconds after the floor is lightly tapped. Raw data are converted with a Microsoft® Excel® (Microsoft® and Excel® are registered trademarks of Microsoft Corp., Redmond, Wash.) macro that determines the number of events over threshold (125) in each 250-millisecond time bin over the 5.5 minutes following onset of observation. The total number and average intensity of events over the duration is determined. Total number of taps is analyzed with one-way ANOVA and post-hoc Dunnett's test using JMP statistical software. A dose-response curve (with doses of 0.3, 1, 3 and 10 pmols, icv) is initially generated with the NK-1 agonist GR73632. […] NK-1 antagonists are tested for their ability to attenuate GR73632-induced foot tapping. NK-1 antagonists are administered (po) via oral feeding tube at doses and time points specified in each experiment. All animals receive only one dose of NK-1 antagonists in all tests. NK-1 antagonists are administered at multiple doses (at least 3; one dose per animal) and response to GR73632 is measured. NK-1 receptor antagonists are administered at multiple pre-treatment times (one administration per animal) including at 0.5, 1, 2, 4, 7, 16, and 24 hours prior to GR73632 injection. GR73632 (Peninsula Labs, CA) is dissolved in saline. Tradipitant is dissolved in 1% CMC/0.5% SLS/0.085% PVP vehicle.

[8] = system: vomiting due to motion sickness; details: crossover study; cited from earlier work

activity in panel of 74 additional receptors, enzymes, and ion channels including NK-2 and NK-3 receptors [2]: No significant activity
inhibition of binding ([2]; test concentration of 1 μM): ≤ 50%
inhibition at the NK-2 receptor (NK-2 receptor): no significant inhibition
concentration at 2 h ([3]; 0.3 mg/kg, 0.3 mg/kg oral): 57.9 ng/mL
concentration at 2 h ([3]; 1 mg/kg, 1.0 mg/kg oral): 133 ng/mL
concentration at 2 h ([3]; 3 mg/kg, 3.0 mg/kg oral): 300 ng/mL
Ki (NK-1 receptor [5]): 0.062 nM
inhibition at the NK-3 receptor (NK-3 receptor): no significant inhibition
Kb (NK-1 receptor [6]): 0.095 nM
SMILES: O=C(c1ccccc1Cl)c1cccnc1-c1nnn(Cc2cc(C(F)(F)F)cc(C(F)(F)F)c2)c1-c1ccncc1 [Tradipitant, {2-[1-(3,5-bistrifluoromethylbenzyl)-5-pyridin-4-yl-1H-[1,2,3]triazol-4-yl]-pyridin-3-yl}-(2-chlorophenyl)-methanone]
efficacy against apomorphine-induced emesis [1]: effective against apomorphine-induced emesis
suppression of agonist-induced vocalization at 7 hours ([4]; 0.1 mg/kg oral, 7 hours after administration): significantly active
duration of activity ([4]; administered orally): exceeds 7 hours
inhibitory activity on vocalization at and below 0.1 mg/kg ([4]; at and below 0.1 mg/kg oral, FIG. 6): retains significant inhibitory activity
inhibition of agonist-induced vocalization ([4]; oral doses of 10, 1.0, 0.1 and 0.05 mg/kg (each p<0.001), FIG. 4): significant inhibition
minimum effective dose (MED), inhibition of vocalization ([4]; oral, p<0.001 compared to controls): 0.025 mg/kg
time after administration up to which foot-tapping is significantly inhibited ([7]; 0.1 mg/kg, po): up to 7 hours
effect on foot-tapping by 16 hours after administration ([7]; 0.1 mg/kg, po, 16 hours): significantly diminished
inhibition at 1 mg/kg ([7]; Meriones unguiculatus, po, 1 mg/kg, 16 hours after administration): > 50%
ED50 ([7]; Meriones unguiculatus, oral, 2 hours after administration, GR73632 3 pmol icv, read-out: ED50, inhibition of foot-tapping behavior): 0.03 ± 0.004 mg/kg

SMILES: C[C@@H](O[C@H]1OCCN(Cc2n[nH]c(=O)[nH]2)[C@H]1c1ccc(F)cc1)c1cc(C(F)(F)F)cc(C(F)(F)F)c1 [Aprepitant, reference compound]
time after administration up to which foot-tapping is inhibited ([7]; 1 mg/kg): up to 24 hours

SMILES: COc1ccc(C(C)(C)C)cc1CN[C@H]1C2CCN(CC2)[C@H]1C(c1ccccc1)c1ccccc1 [Maropitant]
dogs in which the occurrence of vomiting was reduced as compared to placebo [8]: over 75%

Source: patent US10821099B2, “Use of tradipitant in motion sickness” (Vanda Pharmaceuticals Inc., priority 2018, dated 2020)
